Test results published in patent publication US20250197641A1, “OPTICAL ABSORBENT” (priority 2023, published 2025).

How the values were obtained:
Assay type in all cases: physicochemical
[1] = Absorption maximum measurement; conditions: chloroform, about 10^-5 M
Experimental: The maximum absorption was evaluated by a conventional method. Specifically, the sample was dissolved in chloroform solvent at a concentration of about 10^−5 M and then evaluated using measuring equipment (Agilent, Varian Cary 4000).

[2] = Pyrolysis temperature (Td 5%) analysis by TGA; conditions: 25-800° C., 10° C./min, N2
Experimental: The Td 5% is a value obtained through TGA (Thermogravimetric Analysis) analysis. It is the value (Td 5%) at a weight loss of 5% confirmed under the conditions of a temperature range of 25° C. to 800° C., a temperature increase rate of 10° C./min, and a nitrogen (N2) atmosphere of 60 cm^3/min.
Thermogravimetric Analysis (TGA) of the chemical compound was performed by using Scinco's TGA N-1000 equipment. The analysis was performed by using approximately 3 mg of sample (chemical compound) and the analysis was conducted under conditions of a temperature range of 25° C. to 800° C., a temperature increase rate of 10° C./min, and nitrogen (N2) atmosphere of 60 cm^3/min. The value at […] (Td 5%) was used as the Td decomposition temperature.

[3] = Transmittance of absorption membrane before and after reliability evaluation (Test Example 1); conditions: for 425~465 nm Tave, Δ / 425~465 nm Tmin, Δ / 466~480 nm Tave, Δ / 466~480 nm Tmin, Δ / 480~560 nm Tave, Δ / λmax Tmax (transmittance at the absorption maximum), Δ: change before/after 85° C.; for 425~465 nm Tave, Δ / 425~465 nm Tmin, Δ / 466~480 nm Tave, Δ / 466~480 nm Tmin, Δ / 480~560 nm Tave, Δ / λmax Tmax (transmittance at the absorption maximum), Δ / 425~465 nm Tave, A / 425~465 nm Tmin, A / 466~480 nm Tave, A / 466~480 nm Tmin, A / 480~560 nm Tave, A: 85% RH, 120 hours; for 425~465 nm Tave, B / 425~465 nm Tmin, B / 466~480 nm Tave, B / 466~480 nm Tmin, B / 480~560 nm Tave, B: silicone resin membrane about 6 μm, before reliability evaluation; for 425~465 nm Tave, A / 425~465 nm Tmin, A / 466~480 nm Tave, A / 466~480 nm Tmin, A / 480~560 nm Tave, A: silicone resin membrane, after 85° C.
Experimental: The transmittance spectrum was measured using a spectrophotometer (Manufacturer: Perkinelmer, Product Name: Lambda 750 Spectrophotometer) on a specimen obtained by cutting the measurement object (e.g., an absorption membrane) so that the width and height were 10 mm and 10 mm, respectively. The transmittance spectrum was measured for each wavelength according to the equipment manual. The specimen was placed on a straight line between a measuring beam of the spectrophotometer and a detector and the transmittance spectrum was confirmed by setting the incident angle of the measuring beam to 0°. The incident angle of 0° is a direction substantially parallel to the surface normal direction of the specimen. The average transmittance within a certain wavelength range in the transmittance spectrum is the result of measuring the transmittance at each wavelength while increasing the wavelength by 1 nm starting from the shortest wavelength in the wavelength range, and then calculating the arithmetic average of the measured transmittances. The maximum transmittance is the maximum transmittance among the transmittances measured while increasing the wavelength by 1 nm and the minimum transmittance is the minimum transmittance among the transmittances measured while increasing the wavelength by 1 nm. For example, the average transmittance within the wavelength range of 350 nm to 360 nm is the arithmetic mean of the transmittance measured at the wavelength of 350 nm, 351 nm, 352 nm, 353 nm, 354 nm, 355 nm, 356 nm, 357 nm, 358 nm, 359 nm, and 360 nm. The maximum transmittance within the wavelength range of 350 nm to 360 nm is the highest transmittance measured at wavelengths of 350 nm, 351 nm, 352 nm, 353 nm, 354 nm, 355 nm, 356 nm, 357 nm, 358 nm, 359 nm and 360 nm and the minimum transmittance within the wavelength range of 350 nm to 360 nm is the lowest transmittance among the transmittances measured at wavelengths of 350 nm, 351 nm, 352 nm, 353 nm, 354 nm, 355 nm, 356 nm, 357 nm, 358 nm, 359 nm, and 360 nm.
A coating solution was prepared by mixing silicone resin (Dow Chemical, RSN-0217), absorbent, and solvent (cyclohexanone) as resin components. The mixing ratio of the resin component, absorbent, and solvent was set to be 69.3:0.99:29.7 in weight ratio (resin:absorbent:solvent).
The coating solution was coated on a transparent substrate (a glass substrate manufactured by SCHOTT) and maintained at 140° C. for about 2 hours to form an absorption membrane with a thickness of about 6 μm.
Tables 2 and 3 below summarize the transmittance of the absorption membrane before and after reliability evaluation in the ultraviolet and near-infrared regions. The reliability evaluation is an evaluation of maintaining the absorption membrane at 85° C. and under 85% relative humidity condition for 120 hours. In Table 2, B refers to the result before performing the reliability evaluation and A refers to the result after performing the reliability evaluation. Additionally, in Table 2, λmax means the transmittance at the absorption maximum.
In Tables 2 and 3, Δ is the rate of change (%) of each characteristic before and after the reliability evaluation, calculated as 100×[…]/B, where […], B is the value indicated by B in Table 2. In Table 2, Tmax refers to the highest transmittance within the corresponding wavelength region, Tave refers to the average transmittance within the corresponding wavelength region, and Tmin refers to the minimum transmittance within the corresponding wavelength region.

[4] = Absorption spectra of absorption membrane before and after high temperature/high humidity evaluation (Test Example 2); conditions: 85% relative humidity, 120 hours; for ΔA = 100×(Af−Ai)/Ai / Δλ = 100×(λf−λi)λi: 85° C.; for Af, transmittance at the absorption maximum wavelength / λf, absorption maximum wavelength: absorption membrane after 85° C.; for Ai, transmittance at the absorption maximum wavelength / λi, absorption maximum wavelength: absorption membrane before 85° C.
Source text: FIGS. 4 to 6 are the absorption spectra of the absorption membranes prepared in Test Example 1 using the absorbents of Embodiments 1 to 3, respectively. FIGS. 7 to 9 are the absorption spectrum of the absorption membrane prepared in Test Example using the absorbents of Comparative Examples 1 to 3, respectively. In the FIGS., the spectra indicated before reliability is the result immediately after preparing the absorption membrane, and the spectra indicated after reliability is the result after high temperature/high humidity evaluation was performed on the absorption membrane. The high temperature/high humidity evaluation is an evaluation where the absorption membrane is maintained at a temperature of 85° C. under a relative humidity of 85% for 120 hours. In Tables 4 and 5, Af is the transmittance at the absorption maximum wavelength of the absorption membrane maintained at 85° C. under 85% relative humidity for 120 hours and λf is the absorption maximum wavelength for after case. Ai is the transmittance at the absorption maximum wavelength of the absorption membrane before being maintained at 85° C. under 85% relative humidity for 120 hours and λi is the absorption maximum wavelength for before case. In Tables 4 and 5, ΔA is a value calculated as 100×(Af−Ai)/Ai, and Δλ is a value calculated as 100×(λf−λi)λi.

[5] = Solubility of the absorbent in methylene chloride; conditions: room temperature (about 25° C.)
Experimental: The solubility of the absorbent was evaluated. Solubility was determined based on the following criteria by evaluating the solubility of the absorbent in the solvent (MC, Methylene Chloride) at room temperature (about 25° C.).

SMILES | Maximum Absorption Wavelength [1] [nm] | Td 5% [2] [°C] | 425~465 nm Tave, Δ [3] [%] | 425~465 nm Tmin, Δ [3] [%] | 466~480 nm Tave, Δ [3] [%] | 466~480 nm Tmin, Δ [3] [%] | 480~560 nm Tave, Δ [3] [%] | λmax Tmax (transmittance at the absorption maximum), Δ [3] [%] | 425~465 nm Tave, B [3] [%] | 425~465 nm Tmin, B [3] [%] | 466~480 nm Tave, B [3] [%] | 466~480 nm Tmin, B [3] [%] | 480~560 nm Tave, B [3] [%] | 425~465 nm Tave, A [3] [%] | 425~465 nm Tmin, A [3] [%] | 466~480 nm Tave, A [3] [%] | 466~480 nm Tmin, A [3] [%] | 480~560 nm Tave, A [3] [%] | ΔA = 100×(Af−Ai)/Ai [4] [%] | Δλ = 100×(λf−λi)λi [4] [%] | other results
CC1(C)C(/C=C/C2=C(Cl)C(=C/C=C3\N(C[Si](C)(C)C)c4ccccc4C3(C)C)/CC2)=[N+](C[Si](C)(C)C)c2ccccc21 [Embodiment 3] | 817 | 216 | 0.1 | 0.1 | 0.1 | 0.1 | 0. | 0.8 | 87.8 | 86.8 | 89.4 | 88.1 | 91 | 87.9 | 87 | 89.5 | 88.2 | 91 | 6.7 | 0 | Af, transmittance at the absorption maximum wavelength [4]: 12.3%; λf, absorption maximum wavelength [4]: 823 nm; Ai, transmittance at the absorption maximum wavelength [4]: 11.5%; λi, absorption maximum wavelength [4]: 82. nm
CC1(C)C(/C=C/C=C/C=C/C=C2\N(C[Si](C)(C)C)c3ccccc3C2(C)C)=[N+](C[Si](C)(C)C)c2ccccc21 [Embodiment 1] | 763 | 231 | 0 | 0.1 | 0 | 0 | 0 | 0.8 | 89.7 | 87.9 | 91.1 | 90.7 | 91.4 | 89.8 | 88 | 91.1 | 90.7 | 91.4 | 6.6 | 0 | Af, transmittance at the absorption maximum wavelength [4]: 12.3%; λf, absorption maximum wavelength [4]: 758 nm; Ai, transmittance at the absorption maximum wavelength [4]: 11.5%; λi, absorption maximum wavelength [4]: 758 nm
CCCCN1\C(=C/C=C/C=C/C=C/C2=[N+](CCCC)c3ccccc3C2(C)C)C(C)(C)c2ccccc21 [Comparative Example 1] | 761 | 215 | 0.2 | 1.0 | −0.6 | −0.7 | −0.3 | 14.7 | 88.7 | 86.5 | 90.1 | 89.8 | 90.1 | 88.9 | 87.5 | 89.5 | 89.1 | 89.8 | 69.0 | −13 | Solubility [5]: A (When solubility is 1 mass % or more); Af, transmittance at the absorption maximum wavelength [4]: 36.0%; λf, absorption maximum wavelength [4]: 747 nm; Ai, transmittance at the absorption maximum wavelength [4]: 21.3%; λi, absorption maximum wavelength [4]: 748 nm
CCCCN1/C(=C\C=C2/CCC(/C=C/C3=[N+](CCCC)c4ccccc4C3(C)C)=C2Cl)C(C)(C)c2ccccc21 [Comparative Example 3] | 815 | 186 | −0.2 | 0 | −0.9 | −0.6 | −1.3 | 11.4 | 87.3 | 86.5 | 88.9 | 88 | 90.4 | 87 | 86.6 | 88 | 87.5 | 89.2 | 52.6 | −12 | Solubility [5]: A (When solubility is 1 mass % or more); Af, transmittance at the absorption maximum wavelength [4]: 33.0%; λf, absorption maximum wavelength [4]: 818 nm; Ai, transmittance at the absorption maximum wavelength [4]: 21.6%; λi, absorption maximum wavelength [4]: 819 nm
CC1(C)C(/C=C/C=C/C=C/C=C2\N(C[Si](C)(C)C)c3ccc4ccccc4c3C2(C)C)=[N+](C[Si](C)(C)C)c2ccc3ccccc3c21 [Embodiment 2] | 803 | 230 | 0.1 | 0.1 | 0 | 0.1 | 0 | 1.4 | 89.5 | 88.6 | 90.3 | 89.8 | 91.3 | 89.5 | 88.7 | 90.3 | 89.8 | 91.3 | 4.2 | 0 | Af, transmittance at the absorption maximum wavelength [4]: 34.9%; λf, absorption maximum wavelength [4]: 790 nm; Ai, transmittance at the absorption maximum wavelength [4]: 33.5%; λi, absorption maximum wavelength [4]: 790 nm
